Results taken from publication PMC8564858, “Flavonoid-based inhibitors of the Phi-class glutathione transferase from black-grass to combat multiple herbicide resistance” (Organic & Biomolecular Chemistry, 2021).

Assays:
[1] = tested on: HS black-grass (Rothamsted); assay: Petri-dish seedling assay with pendimethalin; assay type: in vivo, Alopecurus myosuroides; conditions: 70 uM compound 55 for 24 h prior to 5 ppm pendimethalin
AtGSTF8 = assay: CDNB assay on AtGSTF8 (selectivity); assay type: biochemical, A. thaliana
Description: Having established flavonoids as AmGSTF1 ligands with the potential to reverse the MHR phenotype, the scope for optimising their activity, selectivity, and physicochemical profile using synthetic modifications was explored. Using 5,7-dihydroxyflavone (chrysin, 2) as precursor (Fig. 3a), the synthesis of flavonoid derivatives with simple A-ring modifications were undertaken. Each compound was then assessed for its binding to the protein target using both thermal shift assays and by the inhibition of enzyme activity toward CDNB (Table S4 ^‡). The 2-methylchromen-4-one derivative 12 (Table S4; ^‡ entry 11) was synthesised to assess the effect of replacement of the aryl ring at the 2-position (B-ring) with a smaller group. […] Alternative 2-substituents, including amides 16, cyclic amines 17 and (hetero)arenes 18, each introduced from the corresponding carboxylic acid 13, thioether 14 and chloride 15 using standard acylation, SNAr and Pd-catalysed cross-coupling reactions (Fig. 3b). […] However, for these compounds, the assessment of activity was difficult due to their low solubility in aqueous solutions. […] To confirm if the binding observed with these synthetic analogues was specific to AmGSTF1, as determined by the inhibition of CDNB activity, the effect of this flavonoid series on an alternative well described phi class GST from A. thaliana (AtGSTF8), was investigated. […]

[2] = Aqueous solubility (qualitative); assay type: physicochemical
MHR black-grass plants = assay: Spray assay on three-leaf stage plants with pendimethalin; assay type: in vivo, Alopecurus myosuroides; conditions: three-leaf stage (BBCH 13); 70 μM compound 55, 24 h prior to spray with 35 μM pendimethalin
AmGSTF1 [3] = assay: Thermal shift assay; assay type: binding, Alopecurus myosuroides; conditions: difference in melting temperature compared to no ligand
MHR black-grass (Peldon) = assay: Petri-dish seedling assay with pendimethalin; assay type: in vivo, Alopecurus myosuroides
AmGSTF1 [4] = assay: CDNB assay: inhibition of AmGSTF1-catalysed glutathionylation of CDNB; assay type: biochemical, Alopecurus myosuroides; conditions: for CDNB Assay % Inhibition: three replicate measurements

SMILES: CCCCCCCCCCC(Oc1cc(O)cc2oc(-c3ccc(O)c(O)c3)c(O)c(=O)c12)C(=O)O (stereo not shown) [compound 55]
- Percentage of normal shoot 14 d after treatment [1]: 50%
- Selectivity toward AmGSTF1 as compared to AtGSTF8 (AtGSTF8): good selectivity
- Solubility in aqueous solutions (in words) [2]: sufficient soluble
- Pendimethalin resistance in established MHR plants (MHR black-grass plants): reversed pendimethalin resistance
- Thermal Shift Assay ∆Tm (AmGSTF1 [3]; 1 µM): 0.20
- Thermal Shift Assay ∆Tm (AmGSTF1 [3]; 10 µM): 2.17
- Thermal Shift Assay ∆Tm (AmGSTF1 [3]; 100 µM): 1.10
- Resistance to pendimethalin in MHR seedlings (MHR black-grass (Peldon); 70 μM compound 55, 24 h prior to 5 ppm pendimethalin, compared to untreated seedlings): reduced
- Percentage of normal shoot 14 d after treatment (MHR black-grass (Peldon); Peldon-MHR, 70 uM compound 55 for 24 h prior to 5 ppm pendimethalin): 66%
- Inhibitory activity toward AmGSTF1 in the CDNB assay (in words) (AmGSTF1 [4]): excellent inhibitory activity
- CDNB Assay % Inhibition (AmGSTF1 [4]; 1 µM compound): 70%
- CDNB Assay % Inhibition (AmGSTF1 [4]; 10 µM compound): 96%
- CDNB Assay % Inhibition (AmGSTF1 [4]; 100 µM compound): 100%
